From the CheMixHub viscosity set
± gives the uncertainty stated by the source.

Assay: xn = mol fraction of the nth substance listed

CCCCCCN + COCCO
308.15 K, 101 kPa
Conditions | viscosity [mPa·s]
x2 = 0.1567 | 0.8278 ± 0.011
x2 = 0.2965 | 1.059 ± 0.013
x2 = 0.4194 | 1.245 ± 0.016
x2 = 0.5291 | 1.381 ± 0.017
x2 = 0.6276 | 1.456 ± 0.018
x2 = 0.7166 | 1.459 ± 0.018
x2 = 0.7973 | 1.434 ± 0.018
x2 = 0.8708 | 1.397 ± 0.018
x2 = 0.9382 | 1.338 ± 0.017

Oc1ccccc1 + CC(=O)c1ccccc1
303.15 K, 101 kPa
Conditions | viscosity [mPa·s]
x2 = 0.0901 | 4.976 ± 0.12
x2 = 0.2182 | 4.319 ± 0.094
x2 = 0.3102 | 3.905 ± 0.078
x2 = 0.4048 | 3.519 ± 0.065
x2 = 0.5083 | 3.131 ± 0.052
x2 = 0.5936 | 2.839 ± 0.042
x2 = 0.7241 | 2.404 ± 0.031
x2 = 0.7583 | 2.295 ± 0.028
x2 = 0.8846 | 1.887 ± 0.019

NCCC(=O)N[C@@H](Cc1c[nH]cn1)C(=O)O + O
viscosity [mPa·s], 100 kPa
Conditions | x1 = 0.000358 | x1 = 0.00054 | x1 = 0.000713 | x1 = 0.00108 | x1 = 0.00126 | x1 = 0.00143 | x1 = 0.00162
293.15 K | 1.024 ± 0.012 | 1.028 ± 0.012 | 1.03 ± 0.012 | 1.046 ± 0.012 | 1.053 ± 0.012 | 1.058 ± 0.012 | 1.06 ± 0.013
298.15 K | 0.908 ± 0.011 | 0.909 ± 0.011 | 0.915 ± 0.011 | 0.928 ± 0.011 | 0.933 ± 0.011 | 0.938 ± 0.011 | 0.938 ± 0.011
303.15 K | 0.813 ± 0.01 | 0.814 ± 0.01 | 0.818 ± 0.01 | 0.831 ± 0.01 | 0.835 ± 0.01 | 0.839 ± 0.01 | 0.84 ± 0.01
308.15 K | 0.732 ± 0.009 | 0.733 ± 0.009 | 0.738 ± 0.009 | 0.747 ± 0.009 | 0.752 ± 0.009 | 0.756 ± 0.009 | 0.756 ± 0.009
313.15 K | 0.663 ± 0.008 | 0.664 ± 0.008 | 0.669 ± 0.008 | 0.676 ± 0.008 | 0.681 ± 0.008 | 0.683 ± 0.008 | 0.685 ± 0.008

COC(=O)OC + CCCCCCCC
298.15 K, 101.3 kPa
Conditions | viscosity [mPa·s]
x1 = 0.0701 | 0.503 ± 0.006
x1 = 0.1113 | 0.495 ± 0.006
x1 = 0.2006 | 0.483 ± 0.006
x1 = 0.2669 | 0.476 ± 0.006
x1 = 0.2955 | 0.476 ± 0.006
x1 = 0.4863 | 0.481 ± 0.006
x1 = 0.6318 | 0.494 ± 0.006
x1 = 0.6706 | 0.499 ± 0.007
x1 = 0.7712 | 0.517 ± 0.007
x1 = 0.8602 | 0.543 ± 0.007
x1 = 0.9459 | 0.569 ± 0.008

CNc1ccccc1 + CCC(=O)O
308.15 K, 101.33 kPa
Conditions | viscosity [mPa·s]
x2 = 0.1405 | 1.689 ± 0.051
x2 = 0.2649 | 1.817 ± 0.052
x2 = 0.3831 | 1.959 ± 0.052
x2 = 0.4886 | 2.058 ± 0.052
x2 = 0.5912 | 2.143 ± 0.052
x2 = 0.6846 | 2.115 ± 0.052
x2 = 0.7714 | 1.931 ± 0.052
x2 = 0.8525 | 1.631 ± 0.051
x2 = 0.8913 | 1.45 ± 0.051
x2 = 0.9291 | 1.226 ± 0.051
x2 = 0.9645 | 1.053 ± 0.051

ClC(Cl)C(Cl)Cl + CCCCCC
303.15 K, 101 kPa
Conditions | viscosity [mPa·s]
x1 = 0.115 | 0.316 ± 0.004
x1 = 0.2303 | 0.363 ± 0.004
x1 = 0.2991 | 0.411 ± 0.004
x1 = 0.4277 | 0.516 ± 0.005
x1 = 0.5521 | 0.633 ± 0.006
x1 = 0.6234 | 0.71 ± 0.007
x1 = 0.7182 | 0.83 ± 0.008
x1 = 0.8039 | 0.966 ± 0.009
x1 = 0.8856 | 1.133 ± 0.011
x1 = 0.9344 | 1.256 ± 0.012

OC(C(F)(F)F)C(F)(F)F + c1ccccc1
viscosity [mPa·s], 101 kPa
Conditions | x1 = 0.04927 | x1 = 0.1096 | x1 = 0.1764 | x1 = 0.2481 | x1 = 0.3333 | x1 = 0.4173 | x1 = 0.5478 | x1 = 0.6489 | x1 = 0.8774
298.15 K | 0.595 ± 0.008 | 0.589 ± 0.008 | 0.583 ± 0.008 | 0.585 ± 0.008 | 0.612 ± 0.008 | 0.648 ± 0.009 | 0.743 ± 0.01 | 0.834 ± 0.011 | 1.216 ± 0.017
313.15 K | 0.481 ± 0.007 | 0.475 ± 0.007 | 0.466 ± 0.006 | 0.471 ± 0.007 | 0.486 ± 0.007 | 0.508 ± 0.007 | 0.561 ± 0.008 | 0.617 ± 0.009 | 0.818 ± 0.012
323.15 K | 0.425 ± 0.006 | 0.423 ± 0.006 | 0.412 ± 0.006 | 0.414 ± 0.006 | 0.425 ± 0.006 | 0.441 ± 0.006 | 0.482 ± 0.007 | 0.521 ± 0.007 | 0.658 ± 0.009

CNc1ccccc1 + CCCCOCCO
viscosity [mPa·s], 101.3 kPa
Conditions | x2 = 0.0992 | x2 = 0.2016 | x2 = 0.3298 | x2 = 0.4032 | x2 = 0.4978 | x2 = 0.6441 | x2 = 0.7771 | x2 = 0.8935
298 K | 2.01 ± 0.053 | 2.089 ± 0.055 | 2.213 ± 0.059 | 2.314 ± 0.061 | 2.425 ± 0.064 | 2.589 ± 0.068 | 2.709 ± 0.072 | 2.788 ± 0.073
303 K | 1.756 ± 0.047 | 1.811 ± 0.048 | 1.918 ± 0.051 | 1.999 ± 0.053 | 2.094 ± 0.056 | 2.232 ± 0.059 | 2.319 ± 0.061 | 2.395 ± 0.063
308 K | 1.567 ± 0.042 | 1.613 ± 0.043 | 1.699 ± 0.045 | 1.753 ± 0.047 | 1.836 ± 0.049 | 1.951 ± 0.052 | 2.049 ± 0.054 | 2.111 ± 0.056
313 K | 1.398 ± 0.038 | 1.433 ± 0.039 | 1.502 ± 0.04 | 1.55 ± 0.041 | 1.619 ± 0.043 | 1.718 ± 0.046 | 1.792 ± 0.048 | 1.851 ± 0.049
318 K | 1.256 ± 0.034 | 1.302 ± 0.035 | 1.352 ± 0.036 | 1.444 ± 0.039 | 1.495 ± 0.04 | 1.576 ± 0.042 | 1.661 ± 0.044 | 1.696 ± 0.045

Oc1ccccc1 + C1CCCCC1
viscosity [mPa·s], 303.15 K
Conditions | x2 = 0.0815 | x2 = 0.2049 | x2 = 0.2824 | x2 = 0.4033 | x2 = 0.501 | x2 = 0.5012 | x2 = 0.5905 | x2 = 0.7019 | x2 = 0.7969 | x2 = 0.8953
101 kPa | 5.517 ± 0.083 | 3.87 ± 0.058 | 3.177 ± 0.048 | 2.326 ± 0.035 | 1.864 ± 0.028 | – | 1.552 ± 0.024 | 1.255 ± 0.019 | 1.066 ± 0.016 | 0.898 ± 0.014
101.33 kPa | 5.517 ± 0.15 | 3.87 ± 0.1 | 3.177 ± 0.083 | 2.326 ± 0.061 | – | 1.864 ± 0.048 | 1.552 ± 0.04 | 1.255 ± 0.033 | 1.066 ± 0.028 | 0.898 ± 0.023

ClC(Cl)C(Cl)Cl + CCCCCCCO
303.15 K, 101 kPa
Conditions | viscosity [mPa·s]
x2 = 0.1082 | 1.677 ± 0.04
x2 = 0.2331 | 1.902 ± 0.041
x2 = 0.3041 | 2.042 ± 0.041
x2 = 0.3446 | 2.126 ± 0.042
x2 = 0.4479 | 2.367 ± 0.042
x2 = 0.5205 | 2.568 ± 0.042
x2 = 0.6548 | 3.047 ± 0.042
x2 = 0.781 | 3.616 ± 0.043
x2 = 0.8562 | 4.014 ± 0.043
x2 = 0.9304 | 4.446 ± 0.042

CO/N=C(\C(=O)N[C@@H]1C(=O)N2C(C(=O)[O-])=C(CSc3nc(=O)c(=O)[n-]n3C)CS[C@H]12)c1csc(N)n1.[Na+].[Na+] + O
viscosity [mPa·s], 100 kPa
Conditions | 293.15 K | 298.15 K | 303.15 K | 308.15 K | 313.15 K
x1 = 9e-05 | 1.012 ± 0.027 | 0.8968 ± 0.026 | 0.8033 ± 0.026 | 0.7267 ± 0.026 | 0.6584 ± 0.026
x1 = 0.00018 | 1.016 ± 0.027 | 0.9026 ± 0.027 | 0.807 ± 0.027 | 0.7308 ± 0.026 | 0.6615 ± 0.026
x1 = 0.000349 | 1.053 ± 0.043 | 0.935 ± 0.038 | 0.829 ± 0.034 | 0.744 ± 0.03 | –
x1 = 0.000873 | 1.12 ± 0.046 | 0.994 ± 0.04 | 0.885 ± 0.036 | 0.794 ± 0.032 | –
x1 = 0.0009 | 1.03 ± 0.027 | 0.9163 ± 0.027 | 0.8185 ± 0.026 | 0.7413 ± 0.026 | 0.6726 ± 0.026
x1 = 0.00139 | 1.2 ± 0.049 | 1.062 ± 0.043 | 0.945 ± 0.039 | 0.849 ± 0.035 | –
x1 = 0.002501 | 1.399 ± 0.057 | 1.231 ± 0.05 | 1.1 ± 0.045 | 0.982 ± 0.04 | –
x1 = 0.003119 | 1.527 ± 0.062 | 1.348 ± 0.055 | 1.195 ± 0.049 | 1.07 ± 0.044 | –
x1 = 0.003887 | 1.701 ± 0.069 | 1.495 ± 0.061 | 1.323 ± 0.054 | 1.184 ± 0.048 | –
x1 = 0.004766 | 1.918 ± 0.078 | 1.674 ± 0.068 | 1.48 ± 0.06 | 1.322 ± 0.054 | –
x1 = 0.005482 | 2.122 ± 0.086 | 1.858 ± 0.076 | 1.638 ± 0.067 | 1.455 ± 0.059 | –
